The text below walks through data of US10806795B2, “Bispecific anti-hapten/anti-blood brain barrier receptor antibodies, complexes thereof and their use as blood brain barrier shuttles” (Hoffmann-La Roche Inc., priority 2014, dated 2020).

On the set-up of series [1]: species or system mice. As to conditions: mouse, in vivo. The text has this: The control group was not pre-injected with the anti-biotin antibody.
Series [2] can be described thus: Serum stability of digoxigenylated polypeptide, free or antibody-complexed (Western Blot-related assay of serum). As to conditions: 32.1 nmol, serum 0.08 h, 2 h, 4 h, 24 h, listed as non-complexed polypeptide. It is filed as in vivo, mice (strain NMRI). The method, then: Serum samples were stored at −80° C.
The determination of the amount of digoxigenylated peptide in the serum at the given time points was difficult compared to the detection of Dig-Cy5 as no direct means to detect the polypeptide in serum samples was available. Therefore, a Western Blot-related assay to detect digoxigenylated peptide in serum was established. In a first step, the serum samples were separated on reducing SDS-PAGE. Because sample preparation included exposure of the serum to high concentrations of SDS and reducing agents, complexed Dig-polypeptide conjugates can become released from the (completely denatured/unfolded) anti-digoxigenin antibody, whereas covalent conjugates remained bound. To mediate the release of the polypeptide from the non-covalent antibody complex and separate the individual components by SDS-PAGE, 2 μl of each serum sample was diluted in 18 μl 20 mM histidine/140 mM NaCl pH 6.0, mixed with 6.7 μl of 4×LDS sample buffer and 3 μl of 10× sample reducing agent (NuPAGE, Invitrogen) for 5 min at 95° C. As a control, 2 μl of serum of an untreated mouse of the same strain was used. […] Digoxigenylated polypeptides were subsequently detected on the membrane with an anti-digoxigenin antibody. […] Chemiluminescence was detected with the Lumilmager F1 (Roche) with an exposure time of 20 min.
(In general: A western blot detects proteins with antibodies after separation by electrophoresis.)

Another series concerns the target T1, NPY2R (Homo sapiens, UniProt P49146).
T1 sequence (P49146 1-381): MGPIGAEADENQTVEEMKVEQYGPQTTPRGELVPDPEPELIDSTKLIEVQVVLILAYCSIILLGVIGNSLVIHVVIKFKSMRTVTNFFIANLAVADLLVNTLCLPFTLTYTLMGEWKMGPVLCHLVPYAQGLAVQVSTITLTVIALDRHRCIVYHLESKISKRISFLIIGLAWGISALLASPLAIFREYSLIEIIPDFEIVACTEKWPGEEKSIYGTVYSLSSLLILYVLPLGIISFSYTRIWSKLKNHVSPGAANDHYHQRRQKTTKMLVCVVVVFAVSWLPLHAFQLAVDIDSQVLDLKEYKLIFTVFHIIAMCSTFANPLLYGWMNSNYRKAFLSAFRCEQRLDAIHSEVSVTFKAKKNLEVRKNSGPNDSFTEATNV
In words: Effect on the Y2Receptor family: NPY2R.

Another series addresses T2, NPY5R (Homo sapiens, UniProt Q15761).
T2 sequence (Q15761 1-445): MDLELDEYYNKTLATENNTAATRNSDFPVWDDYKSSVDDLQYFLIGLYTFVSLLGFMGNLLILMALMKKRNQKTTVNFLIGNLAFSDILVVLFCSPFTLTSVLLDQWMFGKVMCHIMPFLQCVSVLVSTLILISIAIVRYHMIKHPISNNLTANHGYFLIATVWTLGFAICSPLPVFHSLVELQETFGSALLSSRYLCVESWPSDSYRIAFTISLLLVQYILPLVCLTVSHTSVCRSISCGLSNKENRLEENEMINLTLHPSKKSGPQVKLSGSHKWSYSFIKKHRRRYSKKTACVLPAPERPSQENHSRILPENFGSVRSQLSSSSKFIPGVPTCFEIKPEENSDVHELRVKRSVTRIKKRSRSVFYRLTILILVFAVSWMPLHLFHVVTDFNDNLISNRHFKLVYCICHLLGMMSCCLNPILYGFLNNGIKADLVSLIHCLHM
Nature of the series: Effect on the Y2Receptor family: NPY5R.

The next series deals with NPY4R (Homo sapiens, UniProt P50391). In words: Effect on the Y2Receptor family: NPY4R.
NPY4R, sequence (P50391 whole entry, species assumed): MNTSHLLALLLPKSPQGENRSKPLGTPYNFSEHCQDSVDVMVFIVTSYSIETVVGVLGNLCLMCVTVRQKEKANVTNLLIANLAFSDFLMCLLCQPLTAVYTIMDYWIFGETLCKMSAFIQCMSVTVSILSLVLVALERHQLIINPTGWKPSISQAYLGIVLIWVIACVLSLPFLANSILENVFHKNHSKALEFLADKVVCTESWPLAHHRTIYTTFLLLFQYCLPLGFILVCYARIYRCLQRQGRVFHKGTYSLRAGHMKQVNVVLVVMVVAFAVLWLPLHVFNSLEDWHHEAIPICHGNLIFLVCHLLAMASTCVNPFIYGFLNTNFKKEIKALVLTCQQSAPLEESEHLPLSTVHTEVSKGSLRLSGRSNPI
In a further series the target is T3, NPY1R (Homo sapiens, UniProt P25929).
T3 sequence (P25929 1-384): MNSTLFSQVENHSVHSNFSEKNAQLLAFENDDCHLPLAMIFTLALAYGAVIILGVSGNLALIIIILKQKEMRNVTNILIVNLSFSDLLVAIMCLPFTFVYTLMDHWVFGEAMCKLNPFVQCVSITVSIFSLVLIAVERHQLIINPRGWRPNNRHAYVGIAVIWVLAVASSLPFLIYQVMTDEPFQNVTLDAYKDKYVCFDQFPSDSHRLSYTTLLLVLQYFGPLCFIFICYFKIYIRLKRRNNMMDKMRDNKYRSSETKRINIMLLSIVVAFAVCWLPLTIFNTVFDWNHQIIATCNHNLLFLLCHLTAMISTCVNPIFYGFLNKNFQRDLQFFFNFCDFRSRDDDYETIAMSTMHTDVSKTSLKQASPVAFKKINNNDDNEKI
Nature of the series: Effect on the Y2Receptor family: NPY1R.

Series [3] deals with anti-helicar motif amino acid sequence antibody. In words: Binding [Kd] of PYY peptides by anti-helicar motif amino acid sequence antibody.

Entries after “also recorded” stand apart in the source; their conditions may differ. Starred links: 1 amine or outer side, 2 acyl side, 3 side chain; linkers in the order of their positions; H or OH if unused. Non-standard residues stand in square brackets, D forms with d. No end group written: not given here. Pqa = (4-oxo-6-piperazin-1-yl-4H-quinazolin-3-yl)-acetic acid in the backbone, O=C(Cn1cnc2ccc(N3CCN([*:1])CC3)cc2c1=O)[*:2]; NMeR = CN[C@@H](CCCNC(=N)N)C(=O)O

Take “Biotin-O2Oc-Ser-O2Oc-DADOO-Cy5 [Biotin-Cy5]”: the “serum half-life and exposure levels” value in series [1] is “eliminated with a low serum half-life and low exposure levels”.

`CC[C@H](C)[C@H](NC(C)=O)C(=O)N[C@@H](CCCCNC(=O)CCOCCOCCOCCNC(=O)CO[C@H]1CC[C@@]2(C)[C@H](CC[C@@H]3[C@@H]2C[C@@H](O)[C@]2(C)[C@@H](C4=CC(=O)OC4)CC[C@]32O)C1)C(=O)N1CCN(c2ccc3ncn(CC(=O)N[C@@H](CCCNC(=N)N)C(=O)N[C@@H](Cc4c[nH]cn4)C(=O)N[C@@H](Cc4ccc(O)cc4)C(=O)N[C@@H](CC(C)C)C(=O)N[C@@H](CC(N)=O)C(=O)N[C@@H](Cc4c[nH]c5ccccc45)C(=O)N[C@H](C(=O)N[C@H](C(=O)N[C@@H](CCCNC(=N)N)C(=O)N[C@@H](CCC(N)=O)C(=O)N(C)[C@@H](CCCNC(=N)N)C(=O)N[C@@H](Cc4ccc(O)cc4)C(N)=O)[C@@H](C)O)C(C)C)c(=O)c3c2)CC1` [Ac-PYY(PEG3-Dig)]: the “presence/amount of the digoxigenin polypeptide in murine serum” value in series [2] is “barely any signal associable to the small polypeptide was detectable even at the earliest time point; also recorded: very short half-life in the serum of mice”.

Take “Ac-Ile-Lys-Pqa-Arg-His-Tyr-Leu-Asn-Trp-Val-Thr-Arg-Gln-(NMe)-Arg-Try-NH2 * 4 HOAc (Ac-IK[Pqa]RHYLNWVTRQ[NMeR]Y-NH2; also: 4 HOAc salt)”: the NPY2R with NPY2R came to 1.0 nM. For the same compound, the NPY5R entry in the series with NPY5R is listed as “in-”. In the series with NPY4R, the NPY4R entry is “in-”. In addition, the NPY1R result with NPY1R is recorded as “in-”.

Turning to “IKPEAPGEDASPEAHLANEVARLHYLNLVTRQRY-NH2 [PYY_helicar]”, on NPY2R, the NPY2R stood at 6.38 nM. Also, the NPY5R result on NPY5R was “in-”. Also, in series [3], binding was put at a Kd of 12 nM. The NPY4R entry at NPY4R is reported as “in-”.
